# Measurements as given in patent US10053452B2 (AMGEN INC., priority 2013, dated 2018).
# What was measured:
# [1] = Relationship / interconversion between bismesylate crystalline forms; type: physicochemical
# From the text: AMG 900 bismesylate salt crystalline From A was identified as a dihydrate; AMG 900 bismesylate salt crystalline From B was identified as a dihydrate; AMG 900 bismesylate salt crystalline From C was identified as a monohydrate; and AMG 900 bismesylate salt crystalline From D was identified as a monohydrate. […].
# Dog pK study = type: in vivo; settings: dog
# From the text: To this end, a various crystalline forms of different pharmaceutically acceptable salts of AMG 900 were investigated and made.
# solid tumor = assay: Human Ph I clinical trial: active dose and MTD/DLT; settings: oral
# [2] = test system: solid ovarian cancerous tumor; assay: Human Ph I clinical trial, tumor response: ovarian tumor
# Procedure: Specifically, FIG. 32A illustrates diametric measurements along the short axis of the tumor dosed with 30 mg once daily over a period of two (2) cycles, ie., 4 week (28 days).
# [3] = Solid photostability (1×ICH dose for UV and visible light); type: physicochemical; settings: 1×ICH dose for UV and visible light
# Procedure: For photostability studies, enough sample was placed in a open 100 mL glass crystallization dish and exposed to 1×ICH dose for UV and visible light. Samples were weighed out for HPLC, XRPD, TGA and DSC analysis as abve after the exposure to light.
# [4] = Solid stability studies (storage at set temperature/humidity; HPLC, XRPD, TGA, DSC); type: physicochemical; settings: for Total Impurities (%): acceptance < or = 2.0; for Assay (% w/w): acceptance 97.0-103.0; for Description: acceptance: White to brown powder
# [5] = Dynamic vapor sorption (DVS) moisture uptake; type: physicochemical
# Procedure: Moisture uptake of a given AMG 900 salt crystalline form was assessed by dynamic vapor sorption (DVS). Moisture sorption/desorption data was collected on a Surface Measurement System (SMS) DVS-Advantage vapor sorption analyzer (SMS, Alperton, Middlesex, UK). The sorption and desorption data was collected over a range of 0 to 95% relative humidity (RH) at 25° C. with 5-10% RH intervals under a nitrogen purge. Equilibrium criteria used for analysis were less than 0.002% weight change in 5 minutes, with a maximum equilibrium time of 120 minutes if the weight criterion was not met.
# [6] = Solubility studies in aqueous media, excipients or solvents (18-24 hrs, HPLC; solid form by XRPD); type: physicochemical; settings: for solubility at 24 h: thermodynamic from solid
# Procedure: An excess of solid material was stirred at 25° C. or 55° C. for 18-24 hrs in aqueous media, excipients or solvents as noted. At the appropriate time point, an aliquot of the sample was centrifuged. The supernatant was filtered through a PTFE syringe filter and analyzed by HPLC versus a standard curve. The solid was then analyzed by XRPD for identification of the form.
# [7] = test system: stage IV solid endometrial cancerous tumor; assay: Human Ph I clinical trial, tumor response: endometrial tumor; settings: endometrial tumor patient; 30 mg+GCSF once daily, 4 days on/10 days off; week 24; CT, RECIST 1.0
# From the text: FIGS. 31A and 31B are measurements of the same endometrial solid tumor depicted in FIGS. 30A and 30B, but with its size shown as measured alone the short axis by CT and calculated using RECIST 1.1.
# [8] = Solid stability studies (storage at set temperature/humidity; HPLC, XRPD, TGA, DSC); type: physicochemical; settings: for Assay (% w/w): acceptance 97.0-103.0; for physical and chemical stability of unmilled drug substance: up to 3 months, 30° C./65% RH and 40° C./75% RH
# Procedure: Stability data was obtained for up to 3 months storage at the long term storage condition of 30° C./65% RH and at the accelerated condition of 40° C./75% RH for unmilled drug substance.
# Another 10 mg was weighed into a 4 mL glass vial and placed under the same conditions. At each time point one flask was removed from the chamber or over, diluted with methanol to the 100 mL mark and analyzed by HPLC for purity and label claim % compared to the standard. Also at each time point one vial was removed from the chamber and the contents were analyzed by XRPD, TGA and/or DSC.
# [9] = platinum-sensitive ovarian cancer patient, 16 mg, then 8 mg (cycles 4-15), 12 mg (cycle 16) once daily, end of cycle 16
# [10] = 30° C./65% RH, Initial Period Time 0
# [11] = up to 12 weeks, 25° C./60% RH, 40° C./60% RH, 40° C./75% RH and 60° C./Amb
compound,measurement,setting,value
"Cc1csc(-c2nnc(Nc3ccc(Oc4ncccc4-c4ccnc(N)n4)cc3)c3ccccc23)c1 [AMG 900 bismesylate dihydrate form B, N-(4-((3-(2-amino-4-pyrimidinyl)-2-pyridinyl)oxy)phenyl)-4-(4-methyl-2-thienyl)-1-phthalazinamine]",thermodynamic stability of the crystalline form,[1],thermodynamically stable form
same,exposure in a dog pK study,Dog pK study,acceptable
same,dose at which MTD's and DLT's were observed,solid tumor,greater than 8 mg
same,once daily dose at which anti cancer activity was observed,"solid tumor; on-off schedule, ovarian and endometrial tumors",≥ 8 mg
same,decrease in CA-125,[2]; [9],45%
same,decrease in SLD (sum of long axis diameters) on CT,[2]; [9],16%
same,reduction of short axis diameter versus base line,"[2]; stage IV-B ovarian tumor patient, 30 mg once daily, 4 days on/10 days off, two cycles, week 4, RECIST 1.1",about 30%
same,chemical and physical stability to light,[3],chemically and physically stable
same,Water content (%),"[4]; 30° C./65% RH, 3 months",5.1%
same,Total Impurities (%),"[4]; 30° C./65% RH, 3 months",0.21%
same,4-aminophenol content (ppm),"[4]; 30° C./65% RH, 3 months, acceptance < or = 500",<20 ppm
same,Water content (%),"[4]; 30° C./65% RH, 6 months",5.2%
same,Assay (% w/w),"[4]; 30° C./65% RH, 6 months",99.1 % w/w
same,Total Impurities (%),"[4]; 30° C./65% RH, 6 months",0.16%
same,4-aminophenol content (ppm),"[4]; 30° C./65% RH, 6 months, acceptance < or = 500",<20 ppm
same,Description,"[4]; 30° C./65% RH, 6 months",conforms
same,Water content (%),"[4]; 30° C./65% RH, 9 months",5.2%
same,Assay (% w/w),"[4]; 30° C./65% RH, 9 months",101.2 % w/w
same,Total Impurities (%),"[4]; 30° C./65% RH, 9 months",0.25%
same,4-aminophenol content (ppm),"[4]; 30° C./65% RH, 9 months, acceptance < or = 500",<20 ppm
same,Description,"[4]; 30° C./65% RH, 9 months",conforms
same,Water content (%),"[4]; 30° C./65% RH, 12 months",5.2%
same,Assay (% w/w),"[4]; 30° C./65% RH, 12 months",100.1 % w/w
same,Total Impurities (%),"[4]; 30° C./65% RH, 12 months",0.26%
same,4-aminophenol content (ppm),"[4]; 30° C./65% RH, 12 months, acceptance < or = 500",<20 ppm
same,Intermediate* content (ppm),"[4]; 30° C./65% RH, 12 months, acceptance < or = 500, intermediate is 4-(2-(4-aminophenoxy)pyridin-3-yl)pyrimidin-2-amine",171 ppm
same,Description,"[4]; 30° C./65% RH, 12 months",conforms
same,Water content (%),[4]; [10],5.0%
same,Description,[4]; [10],conforms
same,chemical stability (HPLC),[4]; [11],no degradation detected
same,"physical stability (XRPD, TGA and DSC)",[4]; [11],physically stable
same,hygroscopicity,[5],non-hygroscopic
same,stability to humidity changes (DVS isotherm),[5]; above 10% RH,stable to humidity changes
same,form stability after slurry in various aqueous media and solvents,"[6]; 24 hrs, all media except aqueous pH 7 and pH 12",remain unchanged (stable)
same,solubility at 24 h,"[6]; DMF, organic solvent or mixture",> 12000 µg/mL
same,solubility at 24 h,"[6]; THF, organic solvent or mixture",12 µg/mL
same,solubility at 24 h,"[6]; acetone, organic solvent or mixture",20 µg/mL
same,solubility at 24 h,"[6]; aqueous MSA, aqueous buffer, pH 0.5 MSA",676 µg/mL
same,solubility at 24 h,"[6]; aqueous MSA, aqueous buffer, pH 1.0 MSA",> 7400 µg/mL
same,solubility at 24 h,"[6]; aqueous MSA, aqueous buffer, pH 1.5 MSA",3400 µg/mL
same,solubility at 24 h,"[6]; aqueous MSA, aqueous buffer, pH 2.0 MSA",1620 µg/mL
same,form after slurry,"[6]; aqueous pH 7, 24 hrs",converted to the free base form C hydrate
same,form after slurry,"[6]; aqueous pH 12, 24 hrs",converted to the free base form C hydrate
same,solubility at 24 h,"[6]; ethanol, organic solvent or mixture",> 12000 µg/mL
same,solubility at 24 h,"[6]; ethyl acetate, organic solvent or mixture",< 1 µg/mL
same,solubility at 24 h,"[6]; isopropyl alcohol, organic solvent or mixture",> 1 µg/mL
same,solubility at 24 h,"[6]; methanol, organic solvent or mixture",> 12000 µg/mL
same,solubility at 24 h,"[6]; methanol/water (9:1), organic solvent or mixture",> 12000 µg/mL
same,solubility at 24 h,"[6]; methyl ethyl ketone, organic solvent or mixture, Methyl ethyl keone",< 1 µg/mL
same,solubility at 24 h,"[6]; organic solvent or mixture, Acetonitrile (ACN)",383 µg/mL
same,solubility at 24 h,"[6]; organic solvent or mixture, Dichloroethane (DCE)",8 µg/mL
same,solubility at 24 h,"[6]; phosphate buffer, aqueous buffer, pH 7.0 Phosphate",< 1 µg/mL
same,solubility at 24 h,"[6]; phosphate buffer, aqueous buffer, pH 12.0 Phosphate",< 1 µg/mL
same,decrease of long axis diameter versus base line,[7],approximately 50%
same,Assay (% w/w),"[8]; 30° C./65% RH, 3 months",99.2 % w/w
same,Description,"[8]; 30° C./65% RH, 3 months, acceptance: White to brown powder",conforms
same,Assay (% w/w),[8]; [10],98.1 % w/w
same,Total Impurities (%),"[8]; 30° C./65% RH, Initial Period Time 0, acceptance < or = 2.0",0.35%
same,4-aminophenol content (ppm),"[8]; 30° C./65% RH, Initial Period Time 0, acceptance < or = 500",<20 ppm
same,physical and chemical stability of unmilled drug substance,[8]; listed as AMG 900 bis-mesylate dihydrate drug substance,remain within specifications
same,physical and chemical stability of unmilled drug substance,[8]; listed as AMG 900 bismesylate (dimethanesulfonate) salt crystalline Form B,stable
